Data: PubChem BioAssay (NCI)
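GI50 is the concentration that inhibits growth by half. TGI denotes the concentration required for complete inhibition of growth.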

Assays:
Assay in all cases: NCI anticancer screen, dose series, 384-well format
786-0 renal = tested on: 786-0 renal
A498 renal = tested on: A498 renal
A549 NSCLC = tested on: A549 NSCLC
ACHN renal = tested on: ACHN renal
BT-549 breast = tested on: BT-549 breast
CAKI-1 renal = tested on: CAKI-1 renal
CCRF-CEM leukemia = tested on: CCRF-CEM leukemia
COLO 205 colon = tested on: COLO 205 colon
DU-145 prostate = tested on: DU-145 prostate
EKVX NSCLC = tested on: EKVX NSCLC
HCC-2998 colon = tested on: HCC-2998 colon
HCT-116 colon = tested on: HCT-116 colon
HCT-15 colon = tested on: HCT-15 colon
HL-60(TB) leukemia = tested on: HL-60(TB) leukemia
HOP-62 NSCLC = tested on: HOP-62 NSCLC
HOP-92 NSCLC = tested on: HOP-92 NSCLC
HS 578T breast = tested on: HS 578T breast
IGROV1 ovarian = tested on: IGROV1 ovarian
KM12 colon = tested on: KM12 colon
LOX IMVI melanoma = tested on: LOX IMVI melanoma
M14 melanoma = tested on: M14 melanoma
MALME-3M melanoma = tested on: MALME-3M melanoma
MCF7 breast = tested on: MCF7 breast
MDA-MB-231 breast = tested on: MDA-MB-231 breast
MDA-MB-435 melanoma = tested on: MDA-MB-435 melanoma
MDA-MB-468 breast = tested on: MDA-MB-468 breast
MOLT-4 leukemia = tested on: MOLT-4 leukemia
NCI-H226 lung = tested on: NCI-H226 lung
NCI-H23 lung = tested on: NCI-H23 lung
NCI-H322M lung = tested on: NCI-H322M lung
NCI-H460 NSCLC = tested on: NCI-H460 NSCLC
NCI-H522 lung = tested on: NCI-H522 lung
NCI/ADR-RES ovarian = tested on: NCI/ADR-RES ovarian
OVCAR-3 ovarian = tested on: OVCAR-3 ovarian
OVCAR-4 ovarian = tested on: OVCAR-4 ovarian
OVCAR-5 ovarian = tested on: OVCAR-5 ovarian
OVCAR-8 ovarian = tested on: OVCAR-8 ovarian
PC-3 prostate = tested on: PC-3 prostate
RPMI-8226 leukemia = tested on: RPMI-8226 leukemia
RXF 393 renal = tested on: RXF 393 renal
SF-268 CNS = tested on: SF-268 CNS
SF-295 CNS = tested on: SF-295 CNS
SF-539 CNS = tested on: SF-539 CNS
SK-MEL-28 melanoma = tested on: SK-MEL-28 melanoma
SK-MEL-5 melanoma = tested on: SK-MEL-5 melanoma
SK-OV-3 ovarian = tested on: SK-OV-3 ovarian
SN12C renal = tested on: SN12C renal
SNB-19 CNS = tested on: SNB-19 CNS
SNB-75 CNS = tested on: SNB-75 CNS
SR leukemia = tested on: SR leukemia
SW-620 colon = tested on: SW-620 colon
T-47D breast = tested on: T-47D breast
TK-10 renal = tested on: TK-10 renal
U251 glioblastoma = tested on: U251 glioblastoma
UACC-257 melanoma = tested on: UACC-257 melanoma
UACC-62 melanoma = tested on: UACC-62 melanoma
UO-31 renal = tested on: UO-31 renal

`COc1cc2ncnc(Nc3ccc(F)c(Cl)c3)c2cc1NC(=O)/C=C/CN1CCCCC1` was tested, and the GI50 (786-0 renal) was 784 nM, the TGI (786-0 renal) was 2290 nM and the GI50 (A498 renal) was 471 nM. For the same molecule, the TGI (A498 renal) was 2190 nM, the GI50 (A549 NSCLC) was 3310 nM and the TGI (A549 NSCLC) was 4860 nM. For the same molecule, the TGI (ACHN renal) was 1870 nM, the GI50 (BT-549 breast) was 1010 nM and the TGI (BT-549 breast) was 2430 nM. It also gave a GI50 (CAKI-1 renal) of 618 nM, a TGI (CAKI-1 renal) of 2140 nM and a GI50 (CCRF-CEM leukemia) of 1920 nM. The TGI (CCRF-CEM leukemia) was 3370 nM, the GI50 (COLO 205 colon) was 4040 nM and the TGI (COLO 205 colon) was 5480 nM. It also gave a GI50 (DU-145 prostate) of 395 nM, a TGI (DU-145 prostate) of 2140 nM and a TGI (EKVX NSCLC) of 3810 nM. The GI50 (HCC-2998 colon) was 5290 nM, the GI50 (HCT-116 colon) was 1570 nM and the TGI (HCT-116 colon) was 2980 nM. It also gave a GI50 (HCT-15 colon) of 1180 nM, a TGI (HCT-15 colon) of 4170 nM and a GI50 (HL-60(TB) leukemia) of 973 nM. It also gave a TGI (HL-60(TB) leukemia) of 2340 nM, a GI50 (HOP-62 NSCLC) of 4210 nM and a TGI (HOP-62 NSCLC) of 5840 nM. The GI50 (HOP-92 NSCLC) was 1160 nM, the TGI (HOP-92 NSCLC) was 2400 nM and the GI50 (HS 578T breast) was 951 nM. For the same molecule, the TGI (HS 578T breast) was 2810 nM, the GI50 (IGROV1 ovarian) was < 27.3 nM and the TGI (IGROV1 ovarian) was 1560 nM. The GI50 (KM12 colon) was 2050 nM, the TGI (KM12 colon) was 4370 nM and the GI50 (LOX IMVI melanoma) was 2540 nM. For the same molecule, the TGI (LOX IMVI melanoma) was 5010 nM, the GI50 (M14 melanoma) was 1740 nM and the TGI (M14 melanoma) was 3140 nM. The GI50 (MALME-3M melanoma) was 1520 nM, the TGI (MALME-3M melanoma) was 2860 nM and the GI50 (MCF7 breast) was 3170 nM. For the same molecule, the TGI (MCF7 breast) was 4960 nM, the GI50 (MDA-MB-231 breast) was 1230 nM and the TGI (MDA-MB-231 breast) was 2490 nM. The GI50 (MDA-MB-435 melanoma) was 1780 nM, the TGI (MDA-MB-435 melanoma) was 3260 nM and the GI50 (MDA-MB-468 breast) was < 10 nM. For the same molecule, the TGI (MDA-MB-468 breast) was < 19.9 nM, the GI50 (MOLT-4 leukemia) was 803 nM and the TGI (MOLT-4 leukemia) was 2190 nM. For the same molecule, the GI50 (NCI-H226 lung) was 3530 nM, the TGI (NCI-H226 lung) was 5000 nM and the GI50 (NCI-H23 lung) was 3170 nM. For the same molecule, the TGI (NCI-H23 lung) was 5330 nM, the GI50 (NCI-H322M lung) was < 22.1 nM and the TGI (NCI-H322M lung) was 150 nM. The GI50 (NCI-H460 NSCLC) was 1720 nM, the TGI (NCI-H460 NSCLC) was 3410 nM and the GI50 (NCI-H522 lung) was < 45.2 nM. For the same molecule, the TGI (NCI-H522 lung) was 946 nM, the GI50 (NCI/ADR-RES ovarian) was 1140 nM and the TGI (NCI/ADR-RES ovarian) was 2370 nM. It also gave a GI50 (OVCAR-3 ovarian) of 586 nM, a TGI (OVCAR-3 ovarian) of 2040 nM and a GI50 (OVCAR-4 ovarian) of 1180 nM. For the same molecule, the TGI (OVCAR-4 ovarian) was 2470 nM, the GI50 (OVCAR-5 ovarian) was 1660 nM and the TGI (OVCAR-5 ovarian) was 5040 nM. It also gave a GI50 (OVCAR-8 ovarian) of 3430 nM, a TGI (OVCAR-8 ovarian) of 4920 nM and a GI50 (PC-3 prostate) of 1670 nM. The TGI (PC-3 prostate) was 3180 nM, the GI50 (RPMI-8226 leukemia) was 1510 nM and the TGI (RPMI-8226 leukemia) was 2850 nM. For the same molecule, the GI50 (RXF 393 renal) was 1010 nM, the TGI (RXF 393 renal) was 3050 nM and the GI50 (SF-268 CNS) was 1680 nM. The TGI (SF-268 CNS) was 4330 nM, the GI50 (SF-295 CNS) was 4830 nM and the TGI (SF-295 CNS) was 7340 nM. It also gave a GI50 (SF-539 CNS) of 1650 nM, a TGI (SF-539 CNS) of 3030 nM and a GI50 (SK-MEL-28 melanoma) of 1620 nM. It also gave a TGI (SK-MEL-28 melanoma) of 2980 nM, a GI50 (SK-MEL-5 melanoma) of 1600 nM and a TGI (SK-MEL-5 melanoma) of 3670 nM. The GI50 (SK-OV-3 ovarian) was 619 nM, the TGI (SK-OV-3 ovarian) was 5930 nM and the GI50 (SN12C renal) was 595 nM. The TGI (SN12C renal) was 2240 nM, the GI50 (SNB-19 CNS) was 2090 nM and the TGI (SNB-19 CNS) was 6560 nM. The GI50 (SNB-75 CNS) was 775 nM, the TGI (SNB-75 CNS) was 3010 nM and the GI50 (SR leukemia) was 883 nM. The TGI (SR leukemia) was 2210 nM, the GI50 (SW-620 colon) was 1620 nM and the TGI (SW-620 colon) was 3020 nM. For the same molecule, the TGI (T-47D breast) was 3920 nM, the GI50 (TK-10 renal) was < 19.2 nM and the TGI (TK-10 renal) was 3920 nM. For the same molecule, the GI50 (U251 glioblastoma) was 4090 nM, the TGI (U251 glioblastoma) was 5530 nM and the GI50 (UACC-257 melanoma) was 1630 nM. For the same molecule, the TGI (UACC-257 melanoma) was 3080 nM, the GI50 (UACC-62 melanoma) was 1590 nM and the TGI (UACC-62 melanoma) was 2960 nM. It also gave a GI50 (UO-31 renal) of 639 nM and a TGI (UO-31 renal) of 2200 nM.
